Patent US7598234B2, “Steroid derived antibiotics” (Brigham Young University, priority 1998, dated 2009)

Tests used:
Assay type in all cases: cell-based
Gram-negative bacteria [1] = experiment: MIC of ester and amide side chain compounds (Table 14); conditions: strain not given
Procedure: (§1) Aliquots of 1 mL of the suspension were added to test tubes containing 1 mL TSB and incrementally varied concentrations of cholic acid derivatives and/or erythromycin or novobiocin. In the sensitization experiments, erythromycin or novobiocin were added 15 minutes later than the cholic acid derivatives. The samples were subjected to stationary incubation at 37° C. for 24 hours. Sample turbidity was determined by measuring absorption at 760 nm (HP 8453 UV-Visible Chemstation, Hewlett Packard). Additionally, an alliquot from each of the samples showing no measurable turbidity was subcultured on TSA plates (alliquots were diluted to provide fewer than 300 CFU). Colonies that grew on the subculture after overnight incubation were counted and the number of CFU/mL in the samples were calculated. The calculated values were compared to the number of CFU/mL in the original inoculum.
(§2) Ester and amide side chains: Additional compounds, for example, compounds with amide and ester side chains, were tested.

Gram-negative bacteria [2] = experiment: Sensitization to erythromycin, ester and amide side chain compounds (Table 14); conditions: Table 14; strain not given
Procedure: as §1
(§3) Ability to permeabilize outer membrane: Compounds 11, 106, and 108-114 (FIG. 1) were tested for antibiotic activity. They were also tested for the ability to permeabilize the outer membrane of Gram-negative bacteria, causing sensitization to hydrophobic antibiotics that cannot cross the outer membrane. The permeabilization of the outer membrane was measured using erythromycin and novobiocin.
as §2

Gram-negative bacteria [3] = experiment: Sensitization to novobiocin, ester and amide side chain compounds (Table 14); conditions: strain not given
Procedure: as §1, §3, §2

Structure (SMILES) | MIC (Gram-negative bacteria [1]) [µg/mL] | a: concentration of cholic acid derivatives required to lower MIC of erythromycin to 1 μg/ML (Gram-negative bacteria [2]) [µg/mL] | b: concentration of cholic acid derivatives required to lower MIC of novobiocin to 1 μg/ML (Gram-negative bacteria [3]) [µg/mL]
C[C@H](CCCO)[C@H]1CC[C@H]2[C@@H]3[C@H](OC(=O)CN)C[C@@H]4C[C@H](OC(=O)CN)CC[C@]4(C)[C@H]3C[C@H](OC(=O)CN)[C@]12C [Compound 203a] | 85 | 18 | 55
C[C@H](CCCO)[C@H]1CC[C@H]2[C@@H]3[C@H](OC(=O)CCN)C[C@@H]4C[C@H](OC(=O)CCN)CC[C@]4(C)[C@H]3C[C@H](OC(=O)CCN)[C@]12C [Compound 203b] | 80 | 4 | 10
C[C@H](CCCO)[C@H]1CC[C@H]2[C@@H]3[C@H](NC(=O)CN)C[C@@H]4C[C@H](NC(=O)CN)CC[C@]4(C)[C@H]3C[C@H](NC(=O)CN)[C@]12C [Compound 209a] | >100 | 25 | 75
